Reference: patent US10030064B2, “Mammalian cell culture processes for protein production” (priority 2009, dated 2018)
Read-outs that look alike come from different tables or passages of the source.

What was measured:
CHO cells [1] = experiment: Shake flask CHO culture in serum free medium: viable cell density, viability, growth rate, productivity (Example 3); type: cell-based, Chinese hamster; conditions: for final viability: over 0.1 to 10 μM; for Final VCD / Peak VCD / Viability (final, day 10): added two days after inoculation
Procedure: The CHO cell line used in this study was subcloned from DG44 parental cells and cultured in a proprietary chemically-defined growth medium.
The experiments were carried out in 250-mL shake flasks (VWR international) with starting volumes of 100 mL and initial cell densities of 6×10^5 cells/mL. The cultures were placed on a shaker platform (VWR international) at 150 rpm and maintained at 37° C. and 6% CO2 for ten days. The cultures were sampled daily and the pH adjustment using 1M sodium carbonate, and fed with glucose and glutamine every two days in order to maintain them at certain levels. Cell density and viability were measured off-line a Bioprofile Analyzer 400 (Nova Biomedical Corporation, Waltham, Mass.).
The eluted protein was quantified using a 10-level standard curve.

CHO cells [2] = experiment: Preliminary experiment: RU-486 on CHO cell viability, growth and metabolic parameters; type: cell-based, Chinese hamster
Excerpt: RU-486 is a GR antagonist and often used as a tool drug in many GR related studies.

GILZ = experiment: Western blot of GILZ protein in CHO cells; type: cell-based, Chinese hamster; conditions: in the presence of 1 μM RU-486
Procedure: Approximately 10^7 CHO cells were washed with 1× phosphate buffered saline (PBS) solution, lysed with 1 mL of Laemmli sample buffer (Bio-Rad Laboratories, Hercules, Calif.), and then denatured at 90° C. for 5 minutes. […] Membranes were stripped and re-probed with β-actin antibody (Santa Cruz Biotechnology) and an HRP-conjugated anti-mouse secondary antibody. Immunodetection was performed with the enhanced chemiluminescence Western blotting detection system (GE Healthcare UK Limited Little Chalfont, Buckinghamshire, UK) and visualized with a VersaDoc Imaging System (Bio-Rad Laboratories, Hercules, Calif.).
The blot was also reprobed with the beta-actin antibody as a control to assess equivalent gel loading.

glutathione reductase = experiment: Western blot of glutathione reductase in CHO cells; type: cell-based, Chinese hamster; conditions: 1 μM RU-486 added one day before 0.1 μM DEX
Procedure: After being washed with 1×PBS, approximately 10^7 CHO cells were lysed with 1 mL of Laemmli sample buffer (Bio-Rad Laboratories) and denatured at 90° C. for 5 minutes. The whole cell lysates were separated on a 4-15% SDS-polyacrylamide gel, blotted to 0.45 μm nitrocellulose membranes (Bio-Rad Laboratories), and probed with primary antibodies and secondary antibody. The primary antibody for detection of glutathione reductase was the monoclonal antibody raised against amino acids 391-510 mapping near the C-terminus of glutathione reductase of human origin (Santa Cruz Biotechnology, Santa Cruz, Calif.). […] The primary antibody used for detection of glucocorticoid receptor was anti-human monoclonal antibody (Santa Cruz Biotechnology, Santa Cruz, Calif.). The secondary antibody was horseradish peroxidase (HRP)-conjugated anti-mouse antibody (Santa Cruz Biotechnology, Santa Cruz, Calif.). Membranes were stripped and re-probed with β-actin antibody (Santa Cruz Biotechnology) and HRP-conjugated secondary antibody. Immunodetection was performed with the enhanced chemiluminescence Western blotting detection system (GE Healthcare) and visualized with VersaDoc Imaging System (Bio-Rad Laboratories).
A Western Blot was performed to detect glutathione reductase expression in the whole cell lysates prepared from the CHO cells treated with various concentrations of DEX. […]

[3] = tested on: purified IgG-fusion proteins; conditions: Tris-acetate buffer pH 7.5, 37° C., 1 h
Procedure: Reduced glutathione (GSH) at 0, 1 and 3 mM final concentrations was added to Tris-acetate buffered (pH 7.5) solution of purified IgG-fusion proteins, and the mixture of GSH and proteins was incubated at 37° C. for 1 h before SEC-HPLC analysis.
SEC analysis was performed according to the previously published method (Perico et al., 2008) with some modifications. Briefly, the Protein-A purified samples were run on an Agilent 1100 HPLC system (Agilent Technologies, Inc., Palo Alto, Calif.) on Tosoh Bioscience TSK-Gel G3000 SWxl column (7.8 ID×30 cm, 5 μm particles). The mobile phase contained 1× Phosphate Buffered Saline (PBS) at pH 7.4. The flow rate was 0.5 mL/min, and column temperature was controlled at 25° C. The signal was monitored by absorbance at wavelength of 280 nm.
To determine if GSH itself could affect protein aggregation by directly interacting with the proteins, we did in vitro study by adding GSH to Protein-A purified IgG-fusion proteins that were reconstituted in Tris-acetate buffer, and analyzed SEC profiles.

SMILES	final viability (CHO cells [1])	Final VCD (CHO cells [1]; treatment concentration 0.1 μM)	Peak VCD (CHO cells [1]; treatment concentration 0.1 μM)	Viability (final, day 10) (CHO cells [1]; treatment concentration 0.1 μM) [%]	Final VCD (CHO cells [1]; treatment concentration 1 μM)	Peak VCD (CHO cells [1]; treatment concentration 1 μM)	Viability (final, day 10) (CHO cells [1]; treatment concentration 1 μM) [%]	Final VCD (CHO cells [1]; treatment concentration 10 μM)	Peak VCD (CHO cells [1]; treatment concentration 10 μM)	Viability (final, day 10) (CHO cells [1]; treatment concentration 10 μM) [%]	effect on cell viability and cell growth rate (CHO cells [2]; RU-486 at 10 μM)	effect on CHO cell viability and metabolic parameters (CHO cells [2]; RU-486 concentrations not higher than 1 μM)	DEX-induced overexpression of GILZ protein (GILZ)	up-regulatory effect of DEX on glutathione reductase expression (glutathione reductase)	reduction rate of percentage of high molecular weight species ([3]; 1 mM GSH) [%]	reduction rate of percentage of high molecular weight species ([3]; 3 mM GSH) [%]
C[C@]12C=CC(=O)C=C1CC[C@@H]1[C@@H]2[C@@H](O)C[C@@]2(C)[C@H]1CC[C@]2(O)C(=O)CO [PRD, prednisolone]	69.4-75.5%	8.26 ×10^6 cells/mL	8.99 ×10^6 cells/mL	69.4	8.79 ×10^6 cells/mL	9.25 ×10^6 cells/mL	76.8	8.27 ×10^6 cells/mL	8.05 ×10^6 cells/mL	77.5	–	–	–	–	–	–
CC#C[C@]1(O)CC[C@H]2[C@@H]3CCC4=CC(=O)CCC4=C3[C@@H](c3ccc(N(C)C)cc3)C[C@@]21C [RU-486, mifepristone]	–	–	–	–	–	–	–	–	–	–	significant decrease	did not affect	significantly decreased	attenuated	–	–
C[C@]12CCC(=O)C=C1CC[C@@H]1[C@@H]2[C@@H](O)C[C@@]2(C)[C@H]1CC[C@]2(O)C(=O)CO [HYC, hydrocortisone]	60.1-75.5%	7.86 ×10^6 cells/mL	10.06 ×10^6 cells/mL	60.1	8.15 ×10^6 cells/mL	9.51 ×10^6 cells/mL	65.1	7.80 ×10^6 cells/mL	8.44 ×10^6 cells/mL	75.5	–	–	–	–	–	–
N[C@@H](CCC(=O)N[C@@H](CS)C(=O)NCC(=O)O)C(=O)O [GSH, Reduced glutathione]	–	–	–	–	–	–	–	–	–	–	–	–	–	–	15.3	27.3
